Drawing on US20240228482A1, “COMPOUNDS, COMPOSITIONS AND METHODS OF TREATING CANCER” (HOTSPOT THERAPEUTICS, INC., priority 2021, published 2024), this text covers IC50 for 46 molecules.

A value given as a limit tells only on which side of the number the result lay.

In the experiment the target is T1, CBL-B (Homo sapiens, UniProt Q13191).
T1 construct: GST
T1 sequence (Q13191 whole entry): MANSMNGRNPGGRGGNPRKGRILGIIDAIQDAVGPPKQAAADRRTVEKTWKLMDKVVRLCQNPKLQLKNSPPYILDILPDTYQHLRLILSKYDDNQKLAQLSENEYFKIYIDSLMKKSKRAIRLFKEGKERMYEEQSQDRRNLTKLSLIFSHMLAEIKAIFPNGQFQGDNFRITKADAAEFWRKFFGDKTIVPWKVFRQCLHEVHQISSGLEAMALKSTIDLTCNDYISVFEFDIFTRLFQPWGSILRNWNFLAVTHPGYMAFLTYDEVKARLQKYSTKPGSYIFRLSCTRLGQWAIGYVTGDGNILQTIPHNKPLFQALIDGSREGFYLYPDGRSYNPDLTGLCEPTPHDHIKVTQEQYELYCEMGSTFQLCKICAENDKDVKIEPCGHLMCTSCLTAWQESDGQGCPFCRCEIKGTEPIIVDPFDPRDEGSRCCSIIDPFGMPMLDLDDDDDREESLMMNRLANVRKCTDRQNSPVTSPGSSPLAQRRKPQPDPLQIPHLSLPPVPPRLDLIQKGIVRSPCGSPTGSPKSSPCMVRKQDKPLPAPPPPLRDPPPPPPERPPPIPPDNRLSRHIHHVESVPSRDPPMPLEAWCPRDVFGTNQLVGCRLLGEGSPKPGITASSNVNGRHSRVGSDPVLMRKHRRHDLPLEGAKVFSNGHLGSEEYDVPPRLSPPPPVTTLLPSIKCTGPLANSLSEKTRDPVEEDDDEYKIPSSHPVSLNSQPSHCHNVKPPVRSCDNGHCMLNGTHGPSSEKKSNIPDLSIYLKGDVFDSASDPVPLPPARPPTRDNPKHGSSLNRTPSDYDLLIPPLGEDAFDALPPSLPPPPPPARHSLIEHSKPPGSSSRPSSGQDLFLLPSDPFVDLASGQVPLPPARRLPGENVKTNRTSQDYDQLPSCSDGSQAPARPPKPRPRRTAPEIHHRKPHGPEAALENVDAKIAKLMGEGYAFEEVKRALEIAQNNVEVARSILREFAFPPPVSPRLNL
Kind of experiment: CBL-B TR-FRET IC50 screening (E1/E2 ubiquitination, Biotin-Ubiquitin, Anti GST-Tb donor / Streptavidin-d2 acceptor). Particulars: second part of Table 2 (head 'Patent Cmpd No / Updated Activity'); same CBL-B TR-FRET IC50 bins A-F; read-out: Updated Activity. It counts as biochemical. For orientation: In TR-FRET formats the signal depends on donor and acceptor labels being close together.
`COC(=O)N1CC[C@@H](c2cc(C(F)(F)F)c3cn(-c4cccc([C@H](c5nncn5C)C5CCC5)c4)c(=O)n3c2)C1` (single isomer, unassigned) [Compound 409]: the IC50 was below 0.1 µM.
The result for `COCC(COC)[C@H](c1cccc(-n2cc3c(C(F)(F)F)cc(CN4CCC[C@H](C)C4)cn3c2=O)c1)c1nncn1C` (single isomer, unassigned) [Compound 410] reads above 10 µM.
As to `COCC(COC)[C@@H](c1cccc(-n2cc3c(C(F)(F)F)cc(CN4CCC[C@H](C)C4)cn3c2=O)c1)c1nncn1C` (single isomer, unassigned) [Compound 411], the IC50 was above 10 µM.
For `C[C@H]1CCCN(Cc2cc(C(F)(F)F)c3cn(-c4cccc([C@]5(c6nncn6C)C[C@@](C)(O)C5)c4)c(=O)n3c2)C1` (single isomer, unassigned) [Compound 417], the IC50 was below 0.1 µM.
Regarding `C[C@H]1CCCN(Cc2cc(C(F)(F)F)c3cn(-c4cccc([C@]5(c6nncn6C)C[C@](C)(O)C5)c4)c(=O)n3c2)C1` (single isomer, unassigned) [Compound 418], the IC50 fell in the range of 3 to 10 µM.
As for `Cc1cn(CC#N)nc1[C@@H](c1cccc(-n2cc3c(C(F)(F)F)cc(CN4CCC[C@H](C)C4)cn3c2=O)c1)C1CCC1` (single isomer, unassigned) [Compound 419], the IC50 was above 10 µM.
For the molecule `Cc1cn(CC#N)nc1[C@H](c1cccc(-n2cc3c(C(F)(F)F)cc(CN4CCC[C@H](C)C4)cn3c2=O)c1)C1CCC1` (single isomer, unassigned) [Compound 420], the IC50 was above 10 µM.
Under `CC(=O)N1CC[C@H](c2cc(C(F)(F)F)c3cn(-c4cccc([C@H](c5nncn5C)C5CCC5)c4)c(=O)n3c2)C1` (single isomer, unassigned) [Compound 421] stands below 0.1 µM; under `CC(=O)N1CC[C@@H](c2cc(C(F)(F)F)c3cn(-c4cccc([C@H](c5nncn5C)C5CCC5)c4)c(=O)n3c2)C1` (single isomer, unassigned) [Compound 422], below 0.1 µM.
On to `CCn1cnnc1[C@@H](c1cccc(-n2cc3c(C(F)(F)F)cc(CN4CCC[C@H](C)C4)cn3c2=O)c1)C1CCC1` (single isomer, unassigned) [Compound 423], for which the IC50 is above 10 µM.
With `C[C@H]1CCCN(Cc2cc(C(F)(F)F)c3cn(-c4cccc([C@H](c5nncn5C5CC5)C5CCC5)c4)c(=O)n3c2)C1` (single isomer, unassigned) [Compound 424], the IC50 is above 10 µM.
Take `CC(C)n1cnnc1[C@@H](c1cccc(-n2cc3c(C(F)(F)F)cc(CN4CCC[C@H](C)C4)cn3c2=O)c1)C1CCC1` (single isomer, unassigned) [Compound 425]: the IC50 is above 10 µM.
Regarding `CCn1cnnc1[C@H](c1cccc(-n2cc3c(C(F)(F)F)cc(CN4CCC[C@H](C)C4)cn3c2=O)c1)C1CCC1` (single isomer, unassigned) [Compound 426], the IC50 was above 10 µM.
Take `C[C@H]1CCCN(Cc2cc(C(F)(F)F)c3cn(-c4cccc([C@@H](c5nncn5C5CC5)C5CCC5)c4)c(=O)n3c2)C1` (single isomer, unassigned) [Compound 427]: the IC50 was above 10 µM.
For `CC(C)n1cnnc1[C@H](c1cccc(-n2cc3c(C(F)(F)F)cc(CN4CCC[C@H](C)C4)cn3c2=O)c1)C1CCC1` (single isomer, unassigned) [Compound 428], the IC50 is above 10 µM.
As to `C[C@H]1CCCN(Cc2cc(C(F)(F)F)c3cn(-c4cccc([C@H](c5nncn5C)[C@H]5C[C@H](O)C5)c4)c(=O)n3c2)C1` (single isomer, unassigned) [Compound 435], the IC50 was above 10 µM.
Under `C[C@H]1CCCN(Cc2cc(C(F)(F)F)c3cn(-c4cccc([C@@H](c5nncn5C)[C@H]5C[C@@H](O)C5)c4)c(=O)n3c2)C1` (single isomer, unassigned) [Compound 436] stands above 10 µM; under `C[C@H]1CCCN(Cc2cc(C(F)(F)F)c3cn(-c4cccc([C@H](c5nncn5C)[C@H]5C[C@@H](O)C5)c4)c(=O)n3c2)C1` (single isomer, unassigned) [Compound 437], below 0.1 µM; under `C[C@H]1CCCN(Cc2cc(C(F)(F)F)c3cn(-c4cccc([C@@H](c5nncn5C)[C@H]5C[C@H](O)C5)c4)c(=O)n3c2)C1` (single isomer, unassigned) [Compound 438], below 0.1 µM.
Under `CO[C@]1(C)C[C@](c2cccc(-n3cc4c(C(F)(F)F)cc(CN5CCC[C@H](C)C5)cn4c3=O)c2)(c2nncn2C)C1` (single isomer, unassigned) [Compound 439] stands 0.1 to 0.3 µM; under `CO[C@]1(C)C[C@@](c2cccc(-n3cc4c(C(F)(F)F)cc(CN5CCC[C@H](C)C5)cn4c3=O)c2)(c2nncn2C)C1` (single isomer, unassigned) [Compound 440], above 10 µM; under `Cn1cnnc1[C@H](c1cc(-c2ccncn2)cc(-n2cc3c(C(F)(F)F)cccn3c2=O)c1)C1CCC1` (single isomer, unassigned) [Compound 441], above 10 µM.
Regarding `Cn1cnnc1[C@@H](c1cc(-c2ccncn2)cc(-n2cc3c(C(F)(F)F)cccn3c2=O)c1)C1CCC1` (single isomer, unassigned) [Compound 442], the IC50 is above 10 µM.
As for `Cn1cnnc1[C@H](c1cc(-c2ccnnc2)cc(-n2cc3c(C(F)(F)F)cccn3c2=O)c1)C1CCC1` (single isomer, unassigned) [Compound 443], the IC50 was above 10 µM.
Take `Cn1cnnc1[C@H](c1cc(-c2ccncc2)cc(-n2cc3c(C(F)(F)F)cccn3c2=O)c1)C1CCC1` (single isomer, unassigned) [Compound 445]: the IC50 is above 10 µM.
As for `Cn1cnnc1[C@@H](c1cc(-c2ccncc2)cc(-n2cc3c(C(F)(F)F)cccn3c2=O)c1)C1CCC1` (single isomer, unassigned) [Compound 446], the IC50 is above 10 µM.
`Cn1cnnc1[C@H](c1cc(-c2cncnc2)cc(-n2cc3c(C(F)(F)F)cccn3c2=O)c1)C1CCC1` (single isomer, unassigned) [Compound 447]: the IC50 is above 10 µM.
Take `Cn1cnnc1[C@@H](c1cc(-c2cncnc2)cc(-n2cc3c(C(F)(F)F)cccn3c2=O)c1)C1CCC1` (single isomer, unassigned) [Compound 448]: the IC50 was above 10 µM.
Regarding `Cn1cnnc1[C@H](c1cc(C#N)cc(-n2cc3c(C(F)(F)F)cccn3c2=O)c1)C1CCC1` (single isomer, unassigned) [Compound 452], the IC50 was above 10 µM.
Under `Cn1cnnc1[C@@H](c1cc(C#N)cc(-n2cc3c(C(F)(F)F)cccn3c2=O)c1)C1CCC1` (single isomer, unassigned) [Compound 453] stands 0.301 to 1 µM.
Under `Cn1cnnc1[C@H](c1cc(-c2cnoc2)cc(-n2cc3c(C(F)(F)F)cccn3c2=O)c1)C1CCC1` (single isomer, unassigned) [Compound 454] stands 1 to 3 µM; under `Cn1cnnc1[C@@H](c1cc(-c2cnoc2)cc(-n2cc3c(C(F)(F)F)cccn3c2=O)c1)C1CCC1` (single isomer, unassigned) [Compound 455], above 10 µM; under `Cn1cnnc1[C@H](c1cc(-c2cnsc2)cc(-n2cc3c(C(F)(F)F)cccn3c2=O)c1)C1CCC1` (single isomer, unassigned) [Compound 456], above 10 µM.
Regarding `Cn1cnnc1[C@@H](c1cc(-c2cnsc2)cc(-n2cc3c(C(F)(F)F)cccn3c2=O)c1)C1CCC1` (single isomer, unassigned) [Compound 457], the IC50 is above 10 µM.
The result for `Cn1cnnc1[C@H](c1cc(-c2ccns2)cc(-n2cc3c(C(F)(F)F)cccn3c2=O)c1)C1CCC1` (single isomer, unassigned) [Compound 458] reads 3 to 10 µM; that for `Cn1cnnc1[C@@H](c1cc(-c2ccns2)cc(-n2cc3c(C(F)(F)F)cccn3c2=O)c1)C1CCC1` (single isomer, unassigned) [Compound 459], above 10 µM; that for `Cn1cnnc1[C@H](c1cc(-c2ccsn2)cc(-n2cc3c(C(F)(F)F)cccn3c2=O)c1)C1CCC1` (single isomer, unassigned) [Compound 460], above 10 µM.
In the case of `Cn1cnnc1[C@@H](c1cc(-c2ccsn2)cc(-n2cc3c(C(F)(F)F)cccn3c2=O)c1)C1CCC1` (single isomer, unassigned) [Compound 461], the IC50 is above 10 µM.
Under `C[C@H]1CCCN(Cc2cc(C(F)(F)F)c3cn(-c4cccc([C@H](c5nncn5C(F)F)C5CCC5)c4)c(=O)n3c2)C1` (single isomer, unassigned) [Compound 462] stands above 10 µM; under `C[C@H]1CCCN(Cc2cc(C(F)(F)F)c3cn(-c4cccc([C@@H](c5nncn5C(F)F)C5CCC5)c4)c(=O)n3c2)C1` (single isomer, unassigned) [Compound 463], above 10 µM.
In the case of `C[C@@H]1CN(Cc2cc(C(F)(F)F)c3cn(-c4cccc(C5(c6nncn6C)CC6(CC6)C5)c4)c(=O)n3c2)CCC1(F)F` (single isomer, unassigned) [Compound 464], the IC50 was below 0.1 µM.
For `C[C@H]1CN(Cc2cc(C(F)(F)F)c3cn(-c4cccc(C5(c6nncn6C)CC6(CC6)C5)c4)c(=O)n3c2)CCC1(F)F` (single isomer, unassigned) [Compound 465], the IC50 was below 0.1 µM.
Turning to `C[C@H]1CCCN(Cc2cc(C(F)(F)F)c3cn(-c4cccc([C@H](c5nncn5C)C5(O)CCC5)c4)c(=O)n3c2)C1` (single isomer, unassigned) [Compound 474], the IC50 is below 0.1 µM.
The result for `C[C@H]1CCCN(Cc2cc(C(F)(F)F)c3cn(-c4cccc([C@@H](c5nncn5C)C5(O)CCC5)c4)c(=O)n3c2)C1` (single isomer, unassigned) [Compound 475] reads 3 to 10 µM; that for `C[C@H]1CCCN(Cc2cc(C(F)(F)F)c3cn(-c4cc(F)cc([C@H](c5nncn5C)C5COC5)c4)c(=O)n3c2)C1` (single isomer, unassigned) [Compound 476], 0.301 to 1 µM; that for `C[C@H]1CCCN(Cc2cc(C(F)(F)F)c3cn(-c4cc(F)cc([C@@H](c5nncn5C)C5COC5)c4)c(=O)n3c2)C1` (single isomer, unassigned) [Compound 477], below 0.1 µM.
